Patent US20120122860A1, “SOLID FORMS OF SULFONAMIDES AND AMINO ACIDS” (Plexxikon, Inc., priority 2009, published 2012)

Experiments:
[1] = biological target: Kdr (Homo sapiens, UniProt P35968); test: Kinase activity assay, Kdr
[2] = biological target: T1, A-Raf (Homo sapiens, UniProt P10398); test: Kinase activity assay, A-Raf
T1 sequence (P10398 1-606): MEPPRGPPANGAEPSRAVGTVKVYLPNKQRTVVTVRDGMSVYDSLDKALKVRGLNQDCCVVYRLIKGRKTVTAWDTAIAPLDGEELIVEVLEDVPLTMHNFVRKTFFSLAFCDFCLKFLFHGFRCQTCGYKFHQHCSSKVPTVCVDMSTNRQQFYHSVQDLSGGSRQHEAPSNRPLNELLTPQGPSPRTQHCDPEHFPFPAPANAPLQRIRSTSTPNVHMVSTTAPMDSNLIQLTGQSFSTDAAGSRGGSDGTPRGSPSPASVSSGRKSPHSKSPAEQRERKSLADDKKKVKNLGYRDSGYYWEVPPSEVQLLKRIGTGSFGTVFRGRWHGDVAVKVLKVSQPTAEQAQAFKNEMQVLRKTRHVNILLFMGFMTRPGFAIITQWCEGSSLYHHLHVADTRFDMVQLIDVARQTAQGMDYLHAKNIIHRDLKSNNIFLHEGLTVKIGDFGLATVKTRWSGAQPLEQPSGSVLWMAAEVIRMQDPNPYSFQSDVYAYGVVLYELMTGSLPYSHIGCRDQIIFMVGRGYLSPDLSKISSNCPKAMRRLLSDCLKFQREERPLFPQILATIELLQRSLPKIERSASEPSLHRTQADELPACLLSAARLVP

[3] = biological target: B-Raf (Homo sapiens, UniProt P15056); test: Kinase activity assay, B-Raf; assay type: biochemical; conditions: read-out: activity toward kinase B-Raf, IC50
Sequence of B-Raf (P15056 whole entry): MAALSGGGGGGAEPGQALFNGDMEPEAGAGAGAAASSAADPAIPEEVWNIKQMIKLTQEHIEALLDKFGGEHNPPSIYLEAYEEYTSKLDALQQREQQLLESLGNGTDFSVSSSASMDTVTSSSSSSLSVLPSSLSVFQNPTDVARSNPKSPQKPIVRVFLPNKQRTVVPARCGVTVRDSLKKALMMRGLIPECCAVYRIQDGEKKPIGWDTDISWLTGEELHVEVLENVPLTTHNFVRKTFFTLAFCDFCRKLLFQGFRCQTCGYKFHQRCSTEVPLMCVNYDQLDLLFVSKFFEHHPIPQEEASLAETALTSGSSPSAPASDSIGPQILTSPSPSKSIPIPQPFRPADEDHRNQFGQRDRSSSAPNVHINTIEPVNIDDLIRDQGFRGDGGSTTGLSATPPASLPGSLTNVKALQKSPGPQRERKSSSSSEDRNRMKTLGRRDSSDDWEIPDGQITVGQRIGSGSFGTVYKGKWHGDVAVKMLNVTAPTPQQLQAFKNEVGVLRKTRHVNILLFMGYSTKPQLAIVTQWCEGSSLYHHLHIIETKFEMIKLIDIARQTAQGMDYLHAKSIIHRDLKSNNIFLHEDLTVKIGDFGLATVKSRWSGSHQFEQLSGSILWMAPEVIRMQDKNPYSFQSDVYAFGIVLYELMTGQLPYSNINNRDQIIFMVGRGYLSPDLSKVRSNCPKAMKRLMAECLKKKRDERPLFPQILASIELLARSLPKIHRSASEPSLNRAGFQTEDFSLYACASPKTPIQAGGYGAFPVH

[4] = biological target: C-Raf (Homo sapiens, UniProt P04049); test: Kinase activity assay, C-Raf
Sequence of C-Raf (P04049 whole entry): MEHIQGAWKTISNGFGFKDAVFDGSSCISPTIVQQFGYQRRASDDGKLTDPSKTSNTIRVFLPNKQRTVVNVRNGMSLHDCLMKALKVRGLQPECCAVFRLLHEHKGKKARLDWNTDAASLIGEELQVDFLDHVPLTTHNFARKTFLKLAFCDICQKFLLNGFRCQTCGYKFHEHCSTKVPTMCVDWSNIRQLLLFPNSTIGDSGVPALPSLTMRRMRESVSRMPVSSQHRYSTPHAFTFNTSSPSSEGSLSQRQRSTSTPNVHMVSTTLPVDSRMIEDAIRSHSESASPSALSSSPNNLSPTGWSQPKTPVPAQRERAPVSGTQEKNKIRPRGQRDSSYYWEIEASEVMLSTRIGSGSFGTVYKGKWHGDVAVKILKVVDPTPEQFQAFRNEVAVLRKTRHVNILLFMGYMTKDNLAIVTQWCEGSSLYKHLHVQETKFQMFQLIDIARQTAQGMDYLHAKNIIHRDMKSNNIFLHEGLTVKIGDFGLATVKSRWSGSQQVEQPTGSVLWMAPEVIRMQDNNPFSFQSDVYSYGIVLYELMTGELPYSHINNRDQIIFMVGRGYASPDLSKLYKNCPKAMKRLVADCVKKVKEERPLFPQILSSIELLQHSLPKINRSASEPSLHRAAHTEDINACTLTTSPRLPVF

[5] = biological target: B-Raf V600E (Homo sapiens, UniProt P15056, V600E); test: Kinase activity assay, B-Raf V600E; assay type: biochemical; conditions: read-out: activity toward kinase B-Raf V600E, IC50
Sequence of B-Raf V600E (P15056 whole entry V600E): as the sequence (P15056 whole entry) above, with V600E counted along it

[6] = biological target: Kit (Homo sapiens, UniProt P10721); test: Kinase activity assay, Kit
Sequence of Kit (P10721 26-976): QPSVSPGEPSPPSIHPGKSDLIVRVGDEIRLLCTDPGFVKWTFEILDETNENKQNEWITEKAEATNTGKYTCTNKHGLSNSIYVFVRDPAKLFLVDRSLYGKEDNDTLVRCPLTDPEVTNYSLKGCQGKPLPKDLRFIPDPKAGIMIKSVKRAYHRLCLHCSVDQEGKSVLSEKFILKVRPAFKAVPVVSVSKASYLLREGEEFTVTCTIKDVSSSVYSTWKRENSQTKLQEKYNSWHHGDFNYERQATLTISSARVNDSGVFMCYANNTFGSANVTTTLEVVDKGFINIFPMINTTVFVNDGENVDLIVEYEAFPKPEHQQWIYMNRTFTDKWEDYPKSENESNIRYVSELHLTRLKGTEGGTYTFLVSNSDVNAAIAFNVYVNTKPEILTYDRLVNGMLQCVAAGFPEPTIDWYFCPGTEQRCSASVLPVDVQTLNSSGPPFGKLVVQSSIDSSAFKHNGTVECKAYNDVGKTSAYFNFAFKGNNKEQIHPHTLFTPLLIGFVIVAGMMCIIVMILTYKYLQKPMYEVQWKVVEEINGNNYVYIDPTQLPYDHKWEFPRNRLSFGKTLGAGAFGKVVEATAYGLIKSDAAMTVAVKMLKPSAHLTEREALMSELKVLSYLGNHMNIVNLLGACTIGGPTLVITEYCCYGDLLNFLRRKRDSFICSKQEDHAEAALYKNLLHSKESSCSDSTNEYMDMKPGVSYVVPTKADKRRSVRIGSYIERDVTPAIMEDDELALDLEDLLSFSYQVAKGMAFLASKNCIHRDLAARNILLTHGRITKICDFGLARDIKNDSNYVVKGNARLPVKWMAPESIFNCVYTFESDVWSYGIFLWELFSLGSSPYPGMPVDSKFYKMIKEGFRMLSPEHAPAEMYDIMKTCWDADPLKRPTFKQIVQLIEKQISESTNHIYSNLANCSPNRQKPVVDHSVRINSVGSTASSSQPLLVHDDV

[7] = biological target: MAP4K4 (Homo sapiens, UniProt O95819); test: Kinase activity assay, MAP4K4
Sequence of MAP4K4 (O95819 whole entry): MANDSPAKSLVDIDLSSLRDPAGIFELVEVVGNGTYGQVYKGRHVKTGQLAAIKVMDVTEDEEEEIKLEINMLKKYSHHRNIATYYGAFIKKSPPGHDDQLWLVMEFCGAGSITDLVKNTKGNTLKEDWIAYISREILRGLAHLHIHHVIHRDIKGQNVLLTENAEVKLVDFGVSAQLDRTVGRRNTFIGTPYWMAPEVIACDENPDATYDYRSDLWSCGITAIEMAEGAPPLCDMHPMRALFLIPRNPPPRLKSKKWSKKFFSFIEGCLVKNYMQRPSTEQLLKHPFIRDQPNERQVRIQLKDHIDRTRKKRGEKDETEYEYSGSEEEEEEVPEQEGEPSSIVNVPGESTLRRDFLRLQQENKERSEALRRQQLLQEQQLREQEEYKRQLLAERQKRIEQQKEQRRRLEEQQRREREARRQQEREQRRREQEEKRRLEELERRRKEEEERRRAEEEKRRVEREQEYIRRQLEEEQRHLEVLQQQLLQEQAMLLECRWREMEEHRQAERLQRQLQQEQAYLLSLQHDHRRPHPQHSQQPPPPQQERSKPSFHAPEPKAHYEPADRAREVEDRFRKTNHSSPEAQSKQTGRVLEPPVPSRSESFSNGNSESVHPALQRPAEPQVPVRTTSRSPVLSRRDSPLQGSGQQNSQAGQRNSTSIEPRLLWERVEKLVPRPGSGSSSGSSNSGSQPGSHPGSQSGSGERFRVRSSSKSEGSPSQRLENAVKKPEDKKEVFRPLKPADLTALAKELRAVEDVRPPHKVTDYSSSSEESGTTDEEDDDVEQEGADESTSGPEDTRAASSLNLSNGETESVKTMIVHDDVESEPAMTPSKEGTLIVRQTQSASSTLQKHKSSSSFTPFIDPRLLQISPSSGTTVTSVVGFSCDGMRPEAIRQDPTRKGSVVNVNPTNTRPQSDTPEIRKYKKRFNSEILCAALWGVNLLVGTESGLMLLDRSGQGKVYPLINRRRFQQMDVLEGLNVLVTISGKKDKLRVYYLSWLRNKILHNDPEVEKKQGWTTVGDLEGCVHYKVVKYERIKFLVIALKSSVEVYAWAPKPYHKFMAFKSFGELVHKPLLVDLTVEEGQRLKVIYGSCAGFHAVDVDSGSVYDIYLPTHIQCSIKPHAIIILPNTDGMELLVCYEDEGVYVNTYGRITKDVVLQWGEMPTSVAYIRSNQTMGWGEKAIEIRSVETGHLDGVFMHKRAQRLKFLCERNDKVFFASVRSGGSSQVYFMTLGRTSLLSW

[8] = biological target: Src (Homo sapiens, UniProt P12931); test: Kinase activity assay, Src
[9] = biological target: Fms (Homo sapiens, UniProt P07333); test: Kinase activity assay, Fms

Measured: IC50

Sequence of Kdr (P35968 20-1356): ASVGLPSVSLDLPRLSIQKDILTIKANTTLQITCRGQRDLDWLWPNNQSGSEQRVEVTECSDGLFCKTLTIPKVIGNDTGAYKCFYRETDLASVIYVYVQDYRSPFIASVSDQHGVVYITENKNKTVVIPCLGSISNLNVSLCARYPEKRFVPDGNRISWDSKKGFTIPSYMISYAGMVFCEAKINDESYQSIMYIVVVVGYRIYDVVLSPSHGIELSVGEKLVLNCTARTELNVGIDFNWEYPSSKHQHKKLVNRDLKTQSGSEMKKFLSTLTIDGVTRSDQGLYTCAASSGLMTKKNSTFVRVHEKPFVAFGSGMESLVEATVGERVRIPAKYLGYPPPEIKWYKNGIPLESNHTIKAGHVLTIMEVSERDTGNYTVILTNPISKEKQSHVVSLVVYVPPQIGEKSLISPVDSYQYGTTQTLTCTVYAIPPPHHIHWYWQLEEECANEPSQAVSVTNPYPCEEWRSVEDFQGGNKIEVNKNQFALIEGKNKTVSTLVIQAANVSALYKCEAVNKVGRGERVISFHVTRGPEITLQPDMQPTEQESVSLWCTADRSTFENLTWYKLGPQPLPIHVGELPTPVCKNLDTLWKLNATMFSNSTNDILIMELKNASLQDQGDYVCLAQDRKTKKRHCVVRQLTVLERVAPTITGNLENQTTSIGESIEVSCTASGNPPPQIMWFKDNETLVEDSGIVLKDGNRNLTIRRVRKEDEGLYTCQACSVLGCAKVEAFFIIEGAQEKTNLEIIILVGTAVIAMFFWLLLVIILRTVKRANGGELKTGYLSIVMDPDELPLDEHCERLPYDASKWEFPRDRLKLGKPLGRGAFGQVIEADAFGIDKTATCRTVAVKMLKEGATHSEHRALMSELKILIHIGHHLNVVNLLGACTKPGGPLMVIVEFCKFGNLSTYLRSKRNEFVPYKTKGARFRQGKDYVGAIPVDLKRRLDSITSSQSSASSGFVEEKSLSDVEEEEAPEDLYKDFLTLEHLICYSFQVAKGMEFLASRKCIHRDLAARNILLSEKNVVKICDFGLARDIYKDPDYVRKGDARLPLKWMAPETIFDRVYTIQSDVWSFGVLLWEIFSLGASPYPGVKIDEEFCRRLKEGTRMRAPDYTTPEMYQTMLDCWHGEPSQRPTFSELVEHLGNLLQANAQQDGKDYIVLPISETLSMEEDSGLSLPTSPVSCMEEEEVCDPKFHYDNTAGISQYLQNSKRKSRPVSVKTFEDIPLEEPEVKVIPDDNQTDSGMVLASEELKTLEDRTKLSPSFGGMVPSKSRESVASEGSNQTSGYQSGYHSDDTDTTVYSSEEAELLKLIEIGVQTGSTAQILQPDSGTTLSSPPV

CCCS(=O)(=O)Nc1ccc(F)c(C(=O)c2c[nH]c3nccc(Cl)c23)c1F [P-2208, Propane-1-sulfonic acid [3-(4-chloro-1H-pyrrolo[2,3-b]pyridine-3-carbonyl)-2,4-difluoro-phenyl]-amide]
≤ 10 µM: [1] | [2] | [3] | [4] | [5]

CCN(CC)S(=O)(=O)Nc1ccc(F)c(C(=O)c2c[nH]c3ncc(C)cc23)c1F [P-2386, N,N-diethylamino-sulfonic acid [2,4-difluoro-3-(5-methyl-1H-pyrrolo[2,3-b]pyridine-3-carbonyl)-phenyl]-amide]
≤ 10 µM: [1] | [2] | [5]

O=C(c1c(F)ccc(NS(=O)(=O)C2CCC2)c1F)c1c[nH]c2nccc(Cl)c12 [P-2363, Cyclobutanesulfonic acid [3-(4-chloro-1H-pyrrolo[2,3-b]pyridine-3-carbonyl)-2,4-difluoro-phenyl]-amide]
≤ 10 µM: [1] | [2] | [3] | [4] | [5]

N#Cc1ccnc2[nH]cc(C(=O)c3c(F)ccc(NS(=O)(=O)N4CCOCC4)c3F)c12 [P-2395, Morpholine-4-sulfonic acid [3-(4-cyano-1H-pyrrolo[2,3-b]pyridine-3-carbonyl)-2,4-difluoro-phenyl]-amide]
≤ 10 µM: [2] | [3] | [4] | [5]

CCCS(=O)(=O)Nc1ccc(F)c(C(=O)c2c[nH]c3ncc(CN4CCCC4)cc23)c1F [P-2259, Propane-1-sulfonic acid [2,4-difluoro-3-(5-pyrrolidin-1-ylmethyl-1H-pyrrolo[2,3-b]pyridine-3-carbonyl)-phenyl]-amide]
≤ 10 µM: [2] | [3] | [4] | [5]

CCN(CC)S(=O)(=O)Nc1ccc(F)c(C(=O)c2c[nH]c3nccc(C#N)c23)c1F [P-2388, N,N-diethylamino-sulfonic acid [3-(4-cyano-1H-pyrrolo[2,3-b]pyridine-3-carbonyl)-2,4-difluoro-phenyl]-amide]
≤ 10 µM: [2] | [5]

O=C(c1cc(NS(=O)(=O)c2ccc(C(F)(F)F)cc2)ccc1F)c1c[nH]c2ncccc12 [P-2119, N-[4-Fluoro-3-(1H-pyrrolo[2,3-b]pyridine-3-carbonyl)-phenyl]-4-trifluoromethyl-benzenesulfonamide]
≤ 10 µM: [2] | [3] | [4]

CC(C)S(=O)(=O)Nc1ccc(F)c(C(=O)c2c[nH]c3nccc(C#N)c23)c1F [P-2285, Propane-2-sulfonic acid [3-(4-cyano-1H-pyrrolo[2,3-b]pyridine-3-carbonyl)-2,4-difluoro-phenyl]-amide]
≤ 10 µM: [2] | [3] | [4] | [5]

CCCS(=O)(=O)Nc1ccc(F)c(C(=O)c2c[nH]c3ncc(CCC(=O)N(CC)CC)cc23)c1F [P-2255, 3-{3-[2,6-Difluoro-3-(propane-1-sulfonylamino)-benzoyl]-1H-pyrrolo[2,3-b]pyridin-5-yl}-N,N-diethyl-propionamide]
≤ 10 µM: [1] | [2] | [3] | [4] | [5]

CCCS(=O)(=O)Nc1ccc(F)c(C(=O)c2c[nH]c3ncc(-c4cccc(S(C)(=O)=O)c4)cc23)c1F [P-2228, Propane-1-sulfonic acid {2,4-difluoro-3-[5-(3-methanesulfonyl-phenyl)-1H-pyrrolo[2,3-b]pyridine-3-carbonyl]-phenyl}-amide]
not listed: [2]
≤ 10 µM: all other assays above

O=C(c1c(F)ccc(NS(=O)(=O)CCC(F)(F)F)c1F)c1c[nH]c2ncc(Cl)cc12 [P-2324, 3,3,3-Trifluoro-propane-1-sulfonic acid [3-(5-chloro-1H-pyrrolo[2,3-b]pyridine-3-carbonyl)-2,4-difluoro-phenyl]-amide]
not listed: [2]
≤ 10 µM: all other assays above

CCN(CC)S(=O)(=O)Nc1ccc(F)c(C(=O)c2c[nH]c3ncc(C#N)cc23)c1F [P-2385, N,N-diethylamino-sulfonic acid [3-(5-cyano-1H-pyrrolo[2,3-b]pyridine-3-carbonyl)-2,4-difluoro-phenyl]-amide]
≤ 10 µM: [1] | [2] | [5]

CCN(CC)S(=O)(=O)Nc1ccc(F)c(C(=O)c2c[nH]c3nccc(Cl)c23)c1F [P-2387, N,N-diethylamino-sulfonic acid [3-(4-chloro-1H-pyrrolo[2,3-b]pyridine-3-carbonyl)-2,4-difluoro-phenyl]-amide]
≤ 10 µM: [1] | [2] | [5]

CCCS(=O)(=O)Nc1ccc(F)c(C(=O)c2c[nH]c3ncc(CN(CC)CC)cc23)c1F [P-2258, Propane-1-sulfonic acid [3-(5-diethylaminomethyl-1H-pyrrolo[2,3-b]pyridine-3-carbonyl)-2,4-difluoro-phenyl]-amide]
≤ 10 µM: [2] | [3] | [4] | [5]

CC(C)CS(=O)(=O)Nc1ccc(F)c(C(=O)c2c[nH]c3nccc(C#N)c23)c1F [P-2320, 2-Methyl-propane-1-sulfonic acid [3-(4-cyano-1H-pyrrolo[2,3-b]pyridine-3-carbonyl)-2,4-difluoro-phenyl]-amide]
≤ 10 µM: [1] | [2] | [3] | [4] | [5]

CCS(=O)(=O)Nc1ccc(F)c(C(=O)c2c[nH]c3nccc(C#N)c23)c1F [P-2283, Ethanesulfonic acid [3-(4-cyano-1H-pyrrolo[2,3-b]pyridine-3-carbonyl)-2,4-difluoro-phenyl]-amide]
≤ 10 µM: [2] | [3] | [4] | [5]

N#Cc1ccnc2[nH]cc(C(=O)c3c(F)ccc(NS(=O)(=O)C4CCC4)c3F)c12 [P-2370, Cyclobutanesulfonic acid [3-(4-cyano-1H-pyrrolo[2,3-b]pyridine-3-carbonyl)-2,4-difluoro-phenyl]-amide]
≤ 10 µM: [1] | [2] | [3] | [4] | [5]

N#Cc1ccnc2[nH]cc(C(=O)c3c(F)ccc(NS(=O)(=O)c4cccnc4)c3F)c12 [P-2077, Pyridine-3-sulfonic acid [3-(4-cyano-1H-pyrrolo[2,3-b]pyridine-3-carbonyl)-2,4-difluoro-phenyl]-amide]
≤ 10 µM: [2] | [3] | [4] | [5]

CCCS(=O)(=O)Nc1ccc(F)c(C(=O)c2c[nH]c3ncc(CCC(=O)NOC)cc23)c1F [P-2243, 3-{3-[2,6-Difluoro-3-(propane-1-sulfonylamino)-benzoyl]-1H-pyrrolo[2,3-b]pyridin-5-yl}-N-methoxy-propionamide]
≤ 10 µM: [1] | [2] | [3] | [4] | [5]
